Reference: patent publication US7655392B2, “Quenching methods for red blood cell inactivation process” (priority 2004, dated 2010)

How the values were obtained:
[1] = tested on: red blood cells; experiment: Gel card agglutination with rabbit anti-acridine sera; format: cell-based
Experimental: The reduction in modification of red blood cells in the methods of the present invention can be evaluated by several assays. In one assay, rabbit polyclonal sera that is reactive with acridine is produced by injecting New Zealand White rabbits with an acridine compound conjugated to KLH.
This is conjugated to KLH by adding 10 μL of the compound (10 mM in de-ionized water) to 990 μL of a buffered solution of KLH (10 mg/mL in 50 mM Phosphate, 150 mM NaCl, PBS pH=7.2 with proprietary stabilizer, Pierce Cat # 77600) and incubating at room temperature for over 20 hours. Following this incubaton, the conjugated KLH is isolated from the unreacted S-197 and S-197 by-products by passing through a desalting column (e.g. D-salt columns, Pierce) and eluting in PBS buffer. The colored fractions of the solutions are then combined and the KLH conjugates are characterized by the ratio of absorbance at 210 and 410 nm. The acridine-KLH conjugate solutions are mixed with Complete Freund's Adjuvant for intramuscular injection into the rabbits at multiple sites to immunize the rabbits. […] The resulting solution can be assayed for agglutination by passing through a Buffer Gel Card (Micro Typing Systems, Pompano Beach, Fla.). The gel cards are designed to allow non-agglutinated red blood cells to pass through, while cells agglutinated by reaction with the rabbit sera and cross reacting with the anti-rabbit antibody will remain at the top of the gel. The cards are scored as 0, 1+, 2+, 3+, or 4+, where 0 indicates all cells are intact and are at the bottom of the gel, while 4+ indicates complete agglutination, with all cells at the top of the gel.
In these, the appropriate amount of 600 mM stock was added, mixed with an appropriate volume of 8% dextrose to provide the same volume addition to each RBC sample where in one study, with varied glutathione concentrations, the pH was measured after adding glutathione and after adding PIC-1. […] Similar samples were also assessed for the inactivation of S. epidermidis. […] For gel card analysis, after incubation, the RBC were washed in BBS and were diluted in BBS to a final hematocrit of 4%. A 25 μL aliquot of each was mixed with 15 μL of rabbit polyclonal anti-acridine sera diluted either 1:4 or 1:100 in BBS and the mixture was incubated at 37° C. for 30 minutes. The cells were subsequently washed with 1.5 mL BBS. […]
Heterophile antibodies are naturally occurring antibodies that recognize RBC from another species in a non-specific fashion. […] All samples were mixed with quencher first, then PIC-1 at 0.2 mM.
The standard condition was included, i.e. 0.2 mM PIC-1 and 2 mM acidic glutathione added together.

[2] = tested on: Yersinia enterocolitica; experiment: Inactivation of Yersinia enterocolitica in RBC (colony count); format: cell-based
[3] = 0.2 mM PIC-1, 2 mM acidic glutathione (0 eq base), no delay
[4] = 20 mM cysteine+1 eq base, then 0.2 mM PIC-1 after 10 min
[5] = 20 mM cysteine+2 eq base, then 0.2 mM PIC-1 after 10 min
[6] = 20 mM glutathione+2 eq base, then 0.2 mM PIC-1 after 10 min

`O=C(CCNc1c2ccccc2nc2ccccc12)OCCN(CCCl)CCCl` [PIC-1] gave a Gel card score ([1]; Table 13: 5 mM GSH 2eq/15 mM Cys 2eq, 0.2 mM PIC-1, blood sample 1, sera 1:100) of 0, a Gel card score ([1]; Table 13: 5 mM GSH 2eq/15 mM Cys 2eq, 0.2 mM PIC-1, blood sample 2, sera 1:4) of 1 and a Gel card score ([1]; Table 13: 5 mM GSH 2eq/15 mM Cys 2eq, 0.2 mM PIC-1, blood sample 2, sera 1:100) of 0. The Gel card score ([1]; Table 13: 10 mM GSH 2eq/10 mM Cys 1eq, 0.2 mM PIC-1, blood sample 1, sera 1:4) was 3, the Gel card score ([1]; Table 13: 10 mM GSH 2eq/10 mM Cys 1eq, 0.2 mM PIC-1, blood sample 1, sera 1:100) was 0 and the Gel card score ([1]; Table 13: 10 mM GSH 2eq/10 mM Cys 1eq, 0.2 mM PIC-1, blood sample 2, sera 1:4) was 3. The Gel card score ([1]; Table 13: 10 mM GSH 2eq/10 mM Cys 1eq, 0.2 mM PIC-1, blood sample 2, sera 1:100) was 0, the Gel card score ([1]; Table 13: 10 mM GSH 2eq/10 mM Cys 2eq, 0.2 mM PIC-1, blood sample 1, sera 1:4) was 2 and the Gel card score ([1]; Table 13: 10 mM GSH 2eq/10 mM Cys 2eq, 0.2 mM PIC-1, blood sample 1, sera 1:100) was 0. It also gave a Gel card score ([1]; Table 13: 10 mM GSH 2eq/10 mM Cys 2eq, 0.2 mM PIC-1, blood sample 2, sera 1:4) of 2, a Gel card score ([1]; Table 13: 10 mM GSH 2eq/10 mM Cys 2eq, 0.2 mM PIC-1, blood sample 2, sera 1:100) of 0 and a Gel card score ([1]; Table 13: 15 mM GSH 2eq/5 mM Cys 1eq, 0.2 mM PIC-1, blood sample 1, sera 1:4) of 4. For the same molecule, the Gel card score ([1]; Table 13: 15 mM GSH 2eq/5 mM Cys 1eq, 0.2 mM PIC-1, blood sample 1, sera 1:100) was 0, the Gel card score ([1]; Table 13: 15 mM GSH 2eq/5 mM Cys 1eq, 0.2 mM PIC-1, blood sample 2, sera 1:4) was 3 and the Gel card score ([1]; Table 13: 15 mM GSH 2eq/5 mM Cys 1eq, 0.2 mM PIC-1, blood sample 2, sera 1:100) was 0. For the same molecule, the Gel card score ([1]; Table 13: 15 mM GSH 2eq/5 mM Cys 2eq, 0.2 mM PIC-1, blood sample 1, sera 1:4) was 4, the Gel card score ([1]; Table 13: 15 mM GSH 2eq/5 mM Cys 2eq, 0.2 mM PIC-1, blood sample 1, sera 1:100) was 0 and the Gel card score ([1]; Table 13: 15 mM GSH 2eq/5 mM Cys 2eq, 0.2 mM PIC-1, blood sample 2, sera 1:4) was 3. For the same molecule, the Gel card score ([1]; Table 13: 15 mM GSH 2eq/5 mM Cys 2eq, 0.2 mM PIC-1, blood sample 2, sera 1:100) was 0, the Gel card score ([1]; Table 13: 20 mM Cys 1eq, 0.2 mM PIC-1, blood sample 1, sera 1:4) was 0 and the Gel card score ([1]; Table 13: 20 mM Cys 1eq, 0.2 mM PIC-1, blood sample 1, sera 1:100) was 0. For the same molecule, the Gel card score ([1]; Table 13: 20 mM Cys 1eq, 0.2 mM PIC-1, blood sample 2, sera 1:4) was 3, the Gel card score ([1]; Table 13: 20 mM Cys 1eq, 0.2 mM PIC-1, blood sample 2, sera 1:100) was 0 and the Gel card score ([1]; Table 13: 20 mM Cys 2eq, 0.2 mM PIC-1, blood sample 1, sera 1:4) was 0. The Gel card score ([1]; Table 13: 20 mM Cys 2eq, 0.2 mM PIC-1, blood sample 1, sera 1:100) was 0, the Gel card score ([1]; Table 13: 20 mM Cys 2eq, 0.2 mM PIC-1, blood sample 2, sera 1:4) was 1 and the Gel card score ([1]; Table 13: 20 mM Cys 2eq, 0.2 mM PIC-1, blood sample 2, sera 1:100) was 0. It also gave a Gel card score ([1]; Table 13: 20 mM GSH 2eq, 0.2 mM PIC-1, blood sample 1, sera 1:4) of 4, a Gel card score ([1]; Table 13: 20 mM GSH 2eq, 0.2 mM PIC-1, blood sample 1, sera 1:100) of 0 and a Gel card score ([1]; Table 13: 20 mM GSH 2eq, 0.2 mM PIC-1, blood sample 2, sera 1:4) of 4. It also gave a Gel card score ([1]; Table 13: 20 mM GSH 2eq, 0.2 mM PIC-1, blood sample 2, sera 1:100) of 0, a Gel card score ([1]; Table 14: 5 mM CysGly 1 eq. base, 0.2 mM PIC-1, 1:4 dilution of serum) of 4 and a Gel card score ([1]; Table 14: 5 mM CysGly 1 eq. base, 0.2 mM PIC-1, 1:100 dilution of serum) of 2. For the same molecule, the Gel card score ([1]; Table 14: 5 mM CysGly, 0.2 mM PIC-1, 1:4 dilution of serum) was 4, the Gel card score ([1]; Table 14: 5 mM CysGly, 0.2 mM PIC-1, 1:100 dilution of serum) was 0 and the Gel card score ([1]; Table 14: 10 mM CysGly, 0.2 mM PIC-1, 1:4 dilution of serum) was 4. It also gave a Gel card score ([1]; Table 14: 10 mM CysGly, 0.2 mM PIC-1, 1:100 dilution of serum) of 0, a Gel card score ([1]; Table 14: […] CysGly 1 eq. base, 0.2 mM PIC-1, 1:4 dilution of serum) of 4 and a Gel card score ([1]; Table 14: […] CysGly 1 eq. base, 0.2 mM PIC-1, 1:100 dilution of serum) of 4. For the same molecule, the Gel card score ([1]; Table 14: […] CysGly, 0.2 mM PIC-1, 1:4 dilution of serum) was 4, the Gel card score ([1]; Table 14: […] CysGly, 0.2 mM PIC-1, 1:100 dilution of serum) was 3 and the Gel card score ([1]; another study, rabbit sera 1:4: 10 mM neutralized (2 eq.) glutathione, 0.2 mM PIC-1) was 4+. For the same molecule, the Gel card score ([1]; another study, rabbit sera 1:4: 15 mM neutralized (2 eq.) glutathione, 0.2 mM PIC-1) was 3+, the Gel card score ([1]; another study, rabbit sera 1:4: 20 mM neutralized (2 eq.) glutathione, 0.2 mM PIC-1) was 1+ and the Gel card score ([1]; another study, rabbit sera 1:4: standard condition) was 4+. For the same molecule, the Gel card score ([1]; another study, rabbit sera 1:100: 10, 15, 20 mM neutralized glutathione, all samples) was 0, the “Log Y. enterocolitica reduction” value [2, 3] was 8.49 Log and the “Log Y. enterocolitica titer” value [2, 3] was 0.00 Log. The “Log Y. enterocolitica reduction” value [2, 4] was 4.04 Log, the “Log Y. enterocolitica titer” value [2, 4] was 4.45 Log and the “Log Y. enterocolitica reduction” value [2, 5] was 5.79 Log. For the same molecule, the “Log Y. enterocolitica titer” value [2, 5] was 2.70 Log, the “Log Y. enterocolitica reduction” value [2, 6] was 5.95 Log and the “Log Y. enterocolitica titer” value [2, 6] was 2.54 Log. For the same molecule, the “reduction of log inactivation relative to the standard condition” value ([2]; 20 mM neutralized cysteine or neutralized glutathione, 0.2 mM PIC-1) was “about 2.5 log”.
